From patent US9085554B2, “Method of evaluating pharmaceutical preparation containing luliconazole and index substance” (POLA PHARMA INC., priority 2013, dated 2015)

Experiments:
fungi = test: Antifungal activity of the amide form
[1] = Severe test / accelerated test of luliconazole as the active ingredient; type: physicochemical
Text: Further, it is considered that this amide form is produced by the addition of water with respect to a cyano group of the luliconazole. […] Namely, the presence of the amide form is speculated; however, the substance thereof has not been understood. Accordingly, it is difficult to speculate in the stage of manufacturing the pharmaceutical preparation that such a compound may be produced under a storage condition depending on the type of the solvent.
The severe condition herein refers to a storage condition at 60° C. for 3 weeks, and the accelerated condition herein refers to a storage condition at 40° C. for 6 months. The stability of a pharmaceutical preparation containing luliconazole has shown very good consistency between the severe condition and the accelerated condition. Accordingly, either of the conditions can be used. Further, the storage at 40° C. for 6 months is known as a condition substitutable for the condition at a room temperature for 3 years in an application for manufacturing approval of a pharmaceutical.
It is known that water is usually readily added to a cyano group by an acid or a base and the amide form is thereby produced. However, this generality is not applicable in the case of luliconazole, for the following reason. […]

Compound	Antifungal activity (fungi)	Production of SE form and Z form ([1]; accelerated test and/or severe test)	Production of amide form from luliconazole active ingredient ([1]; severe test (60° C., 3 weeks) or accelerated test (40° C., 6 months) of the active ingredient)
NC(=O)/C(=C1/SC[C@@H](c2ccc(Cl)cc2Cl)S1)n1ccnc1 [amide form, [R-(E)]-α-[4-(2,4-dichlorophenyl)-1,3-dithiolan-2-ylidene]-1H-imidazole-1-acetamide]	low		
N#C/C(=C1/SC[C@@H](c2ccc(Cl)cc2Cl)S1)n1ccnc1 [luliconazole, Luliconazole]		relatively readily produced	hardly produced
